Data published in patent US11998595B2, “Telomerase polypeptide vaccine for treating cancer” (Ultimovacs AS, priority 2010, dated 2024).

Legend:
[1] = test system: stage IV lung cancer patients; assay: Clinical course of vaccinated lung cancer patients; assay type: in vivo, human; set-up: key to Clinical response: PD = Progressive disease; SD = Stable disease; PR = Partial response; CR = Complete response
Protocol: (§1) A comparison of the patients studied in Example 4 was carried out. In brief, seven patients were identified as clinical responders following a cancer diagnosis and vaccination with an hTERT vaccine. These patients were identified based on a combination of prolonged survival and clinical response. The clinical response could either be stable disease (SD), partial response (PR) or complete response (CR). The vaccinated melanoma patients were diagnosed with stage IV at the time of inclusion in the clinical trial, but had no brain metastases. Lung cancer patient P5 was diagnosed with stage IV, inoperable lung cancer and colon cancer patient P1 with late stage inoperable colon cancer. Lung cancer patient P6 was a stage IV lung cancer patient with a 12-week life expectancy. Pancreas cancer patient P1 had relapsed, inoperable pancreas cancer and a life expectancy of 8-10 months. Four of the patients (designated Melanoma P7-P8, Lung cancer P5 and Colon cancer P1) had each been vaccinated with the peptide GV1001 (SEQ ID NO. 10). The fifth patient (designated Lung cancer P6) and the sixth patient (designated Pancreas cancer 1) had been vaccinated with dendritic cells transfected with mRNA encoding hTERT. The seventh patient, Melanoma patient P9, had not been vaccinated at the time of the study and instead developed a spontaneous response following development of the cancer. (An eighth and final patient was also identified as a clinical responder but samples from this patient were not available for study.)
Four patients who were clinical non-responders following a lung cancer diagnosis and a GV1001 (SEQ ID NO. 10) peptide vaccination were studied. These patients were all stage IV lung cancer patients vaccinated with GV1001. […] The proliferative T-cell responses of each patient to a series of peptides were determined in the same manner as in Example 1, at one time point. The peak response of each patient during the study period to peptide GV1001 is also shown which confirms that each patient responded immunologically to GV1001 vaccination.
(§2) The patients were classed as either clinical responders or clinical non-responders based on their clinical response which included stable disease (SD), tumour regression (PR or CR) and unexpectedly long survival time. Both clinical responders and clinical non-responders were selected from the same or similar vaccination trials.

[2] = test system: late stage inoperable colon cancer patient; assay: Clinical course of vaccinated colon cancer patient; assay type: in vivo, human; conditions: patient Colon ca P1
Protocol: as §1, §2

EARPALLTSRLRFIPK (listed as Homo sapiens) [GV1001]
Clinical Responder ([1]; patient Lung ca P1): No
Clinical response ([1]; patient Lung ca P1): PD
Survival (Months) ([1]; patient Lung ca P1): 14 Months
Vaccine-specific T cell response at time-point tested ([1]; patient Lung ca P1): Yes
Clinical Responder ([1]; patient Lung ca P2): No
Clinical response ([1]; patient Lung ca P2): PD
Survival (Months) ([1]; patient Lung ca P2): 6 Months
Vaccine-specific T cell response at time-point tested ([1]; patient Lung ca P2): Yes
Clinical Responder ([1]; patient Lung ca P3): No
Survival (Months) ([1]; patient Lung ca P3): 20 Months
Vaccine-specific T cell response at time-point tested ([1]; patient Lung ca P3): Yes
Clinical Responder ([1]; patient Lung ca P4): No
Survival (Months) ([1]; patient Lung ca P4): 10 Months
Vaccine-specific T cell response at time-point tested ([1]; patient Lung ca P4): Yes
Clinical Responder ([1]; patient Lung ca P5): Yes
Clinical response ([1]; patient Lung ca P5): alive, CR
Vaccine-specific T cell response at time-point tested ([1]; patient Lung ca P5): Yes
Survival (Months) ([1]; patient Lung ca P5, + signifies that the patient is still alive): 106+ Months
Clinical Responder [2]: Yes
Clinical response [2]: alive, CR
Vaccine-specific T cell response at time-point tested [2]: Yes
Survival (Months) ([2]; + signifies that the patient is still alive): 80+ Months
